Our source for the Ki and IC50 values is US20110166121A1 (LG LIFE SCIENCES LTD., priority 2008, published 2011).

pIC50, pKi: −log10 of the molar value.

In experiment [1] the test system is Human platelet aggregation caused by ADP. The experiment can be described thus: Inhibition of ADP-induced platelet aggregation (Mimic-human PRP). It is filed as cell-based. The following applies: 20 μM ADP, human platelet concentrate diluted with PPP, absorption at 595 nm. In a few lines:
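Human PRP diluted with PPP to 3–4×10^8 platelets/mL was preincubated 20 min at room temperature with compound (0.01–30 μM, DMSO), then stimulated with 20 μM ADP. Aggregation read as A595 increase at 3 min versus 0 and 20 μM ADP controls; Ki from sigmoidal non-linear regression.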

For the next experiment, the target named is T1, Human P2Y12 receptor (Homo sapiens, UniProt Q9H244).
T1 construct: expressed in transfected cells; host or cells: HEK cells
The experiment is described as follows: Human P2Y12 receptor cell membrane binding assay with [3H] 2-Mes-ADP. The conditions noted are these: 1 nM [3H] 2-Mes-ADP, membranes of HEK cells expressing P2Y12 receptor; read-out: Binding activity (IC50). In a few lines:
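Membranes from HEK cells expressing human P2Y12 were incubated with compound and 1 nM [3H]2-MeS-ADP for 1 h at room temperature. Bound radioactivity was collected by GF/B filtration.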

T1 sequence (Q9H244 whole entry): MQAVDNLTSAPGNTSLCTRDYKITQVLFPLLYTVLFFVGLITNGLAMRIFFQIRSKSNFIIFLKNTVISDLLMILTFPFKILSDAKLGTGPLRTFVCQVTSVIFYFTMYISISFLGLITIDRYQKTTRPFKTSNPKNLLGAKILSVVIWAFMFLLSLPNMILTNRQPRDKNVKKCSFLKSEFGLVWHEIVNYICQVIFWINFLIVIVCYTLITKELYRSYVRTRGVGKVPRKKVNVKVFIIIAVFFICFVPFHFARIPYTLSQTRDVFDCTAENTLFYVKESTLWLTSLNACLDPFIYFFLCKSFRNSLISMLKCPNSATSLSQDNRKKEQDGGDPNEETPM

One may read the pKi as the negative decadic logarithm of the Ki, by convention in mol/L. A higher pKi goes with a small Ki. As usually defined, the pIC50 is the IC50 on a negative log10 scale, so that one unit is a factor of ten. In experiment [1], `CCCc1cc2c(N3CCn4c(nnc4C(F)(F)F)C3)nc(OCc3nc(CC(=O)OCC)co3)nc2s1` [Example 3-18, {2-[6-Propyl-4-(3-trifluoromethyl-5,6-dihydro-8H-[1,2,4]triazolo[4,3-a]pyrazin-7-yl)-thieno[2,3-d]pyrimidin-2-yloxymethyl]-oxazol-4-yl}-acetic acid ethyl ester] gave a pKi of 5.37. Further, the pIC50 at Human P2Y12 receptor is 6.40.
In experiment [1], `CCCc1cc2c(N3CCn4c(nnc4C(F)(F)F)C3)nc(O)nc2s1` [Example 3-27, 6-Propyl-4-(3-trifluoromethyl-5,6-dihydro-8H-[1,2,4]triazolo[4,3-a]pyrazin-7-yl)-thieno[2,3-d]pyrimidin-2-ol] gave a pKi of 5.06. For the same compound, at Human P2Y12 receptor, the pIC50 is 5.27.
In experiment [1], `CCCc1cc2c(N3CCn4c(nnc4C(F)(F)F)C3)nc(N3CCc4sccc4C3)nc2s1` [Example 1-79, 7-[2-(6,7-Dihydro-4H-thieno[3,2-c]pyridin-5-yl)-6-propyl-thieno[2,3-d]pyrimidin-4-yl]-3-trifluoromethyl-5,6,7,8-tetrahydro-[1,2,4]triazolo[4,3-a]pyrazine] gave a pKi of 5.90. Besides, the pIC50 on Human P2Y12 receptor was 6.43.
With `CCCc1cc2c(N3CCn4c(nnc4C(F)(F)F)C3)nc(NCc3ccccc3)nc2s1` [Example 1-32, Benzyl-[6-propyl-4-(3-trifluoromethyl-5,6-dihydro-8H-[1,2,4]triazolo[4,3-a]pyrazin-7-yl)-thieno[2,3-d]pyrimidin-2-yl]-amine], the negative-log Ki (pKi) in experiment [1] was below 5.40. Moreover, the pIC50 at Human P2Y12 receptor is 7.02.
Compound `CCCc1cc2c(N3CCn4c(nnc4C(F)(F)F)C3)nc(CO)nc2s1` [Example 4-19, [6-Propyl-4-(3-trifluoromethyl-5,6-dihydro-8H-[1,2,4]triazolo[4,3-a]pyrazin-7-yl)-thieno[2,3-d]pyrimidin-2-yl]methanol] showed a pKi in experiment [1] of 6.60. Moreover, the pIC50 on Human P2Y12 receptor was 6.30.
For `CCCc1cc2c(N3CCn4c(nnc4C(F)(F)F)C3)nc(N3CC[C@@H](C(=O)OCOC(=O)C(C)(C)C)C3)nc2s1` [Example 1-63, (R)-1-[6-Propyl-4-(3-trifluoromethyl-5,6-dihydro-8H-[1,2,4]triazolo[4,3-a]pyrazin-7-yl)-thieno[2,3-d]pyrimidin-2-yl]-pyrrolidine-3-carboxylic acid 2,2-dimethyl-propionyloxymethyl ester] the same measures were 6.00 and 6.28.
Regarding `CCCc1cc2c(N3CCn4c(nnc4C(F)(F)F)C3)nc(OCCC(=O)OC(C)C)nc2s1` [Example 3-12, 3-[6-Propyl-4-(3-trifluoromethyl-5,6-dihydro-8H-[1,2,4]triazolo[4,3-a]pyrazin-7-yl)-thieno[2,3-d]pyrimidin-2-yloxy]-propionic acid isopropyl ester], in experiment [1], the pKi was 7.30. Further, at Human P2Y12 receptor, the pIC50 was 6.80.
`CCCc1cc2c(N3CCn4c(nnc4C(F)(F)F)C3)nc(NC3CNC3)nc2s1` [Example 1-83, Azetidin-3-yl-[6-propyl-4-(3-trifluoromethyl-5,6-dihydro-8H-[1,2,4]triazolo[4,3-a]pyrazin-7-yl)-thieno[2,3-d]pyrimidin-2-yl]-amine]: the negative logarithm of the Ki (pKi) in experiment [1] is 8.15. For the same compound, the pIC50 at Human P2Y12 receptor is 6.49.
Turning to `CCCc1cc2c(N3CCn4c(nnc4C(F)(F)F)C3)nc(N3CC(=NO)C(N)C3)nc2s1` (stereo not drawn) [Example 1-116, 4-Amino-1-[6-propyl-4-(3-trifluoromethyl-5,6-dihydro-8H-[1,2,4]triazolo[4,3-a]pyrazin-7-yl)-thieno[2,3-d]pyrimidin-2-yl]-pyrrolidin-3-one oxime], the pKi in experiment [1] was 7.55. Moreover, on Human P2Y12 receptor, the pIC50 is 7.15.
In experiment [1], `CCCc1cc2c(N3CCn4c(nnc4C(F)(F)F)C3)nc(Nc3ncccn3)nc2s1` [Example 1-37, [6-Propyl-4-(3-trifluoromethyl-5,6-dihydro-8H-[1,2,4]triazolo[4,3-a]pyrazin-7-yl)-thieno[2,3-d]pyrimidin-2-yl]-pyrimidin-2-yl-amine] showed a pKi of 6.07. The pIC50 on Human P2Y12 receptor was 6.26.
In experiment [1], `CCCc1cc2c(N3CCn4c(nnc4C(F)(F)F)C3)nc(Oc3ccc(C#N)cc3)nc2s1` [Example 3-38, 4-[6-Propyl-4-(3-trifluoromethyl-5,6-dihydro-8H-[1,2,4]triazolo[4,3-a]pyrazin-7-yl)-thieno[2,3-d]pyrimidin-2-yloxy]-benzonitrile] had a pKi of 5.66. Also, the pIC50 at Human P2Y12 receptor is 6.75.
In experiment [1], `CCCc1cc2c(N3CCn4c(nnc4C(F)(F)F)C3)nc(N3CCCC(N)C3)nc2s1` (stereo not drawn) [Example 1-70, 1-[6-Propyl-4-(3-trifluoromethyl-5,6-dihydro-8H-[1,2,4]triazolo[4,3-a]pyrazin-7-yl)-thieno[2,3-d]pyrimidin-2-yl]-piperidin-3-ylamine] gave a pKi of 6.96. In addition, the pIC50 at Human P2Y12 receptor is 6.78.
The compound `CCCc1cc2c(N3CCn4c(nnc4C(F)(F)F)C3)nc(-c3nnc(CCOC)o3)nc2s1` [Example 4-37, 7-{2-[5-(2-Methoxyethyl)-[1,3,4]oxadiazol-2-yl]-6-propyl-thieno[2,3-d]pyrimidin-4-yl}-3-trifluoromethyl-5,6,7,8-tetrahydro-[1,2,4]triazolo[4,3-a]pyrazine] had a negative-log Ki (pKi) in experiment [1] of 6.60. In addition, the pIC50 on Human P2Y12 receptor is 6.72.
In experiment [1], `CCCc1cc2c(N3CCn4c(nnc4C(F)(F)F)C3)nc(N3CC[C@@H](C(=O)O)C3)nc2s1` [Example 1-61, (R)-1-[6-Propyl-4-(3-trifluoromethyl-5,6-dihydro-8H-[1,2,4]triazolo[4,3-a]pyrazin-7-yl)-thieno[2,3-d]pyrimidin-2-yl]-pyrrolidine-3-carboxylic acid] showed a pKi of 5.14. For the same compound, the pIC50 on Human P2Y12 receptor is 7.96.
In the same order, the values of `CCCc1cc2c(N3CCn4c(nnc4C(F)(F)F)C3)nc(N3CCC(OC)C3)nc2s1` (stereo not drawn) [Example 1-24, 7-[2-(3-Methoxy-pyrrolidin-1-yl)-6-propyl-thieno[2,3-d]pyrimidin-4-yl]-3-trifluoromethyl-5,6,7,8-tetrahydro-[1,2,4]triazolo[4,3-a]pyrazine] are 7.06 and 7.27.
The compound `CCCc1cc2c(N3CCn4c(nnc4C(F)(F)F)C3)nc(-c3nnc(-c4ccccc4)o3)nc2s1` [Example 4-33, 7-[2-(5-Phenyl-[1,3,4]oxadiazol-2-yl)-6-propyl-thieno[2,3-d]pyrimidin-4-yl]-3-trifluoromethyl-5,6,7,8-tetrahydro-[1,2,4]triazolo[4,3-a]pyrazine] gave a pKi in experiment [1] of 7.00. Moreover, at Human P2Y12 receptor, the negative logarithm of the IC50 (pIC50) is 7.12.
With `CCCc1cc2c(N3CCn4c(nnc4C(F)(F)F)C3)nc(N3CC[C@H](NC(=O)Cc4c[nH]cn4)C3)nc2s1` [Example 1-120, 2-(1H-Imidazol-4-yl)-N-{(S)-1-[6-propyl-4-(3-trifluoromethyl-5,6-dihydro-8H-[1,2,4]triazolo[4,3-a]pyrazin-7-yl)-thieno[2,3-d]pyrimidin-2-yl]-pyrrolidin-3-yl}-acetamide], the pKi in experiment [1] is 7.80. The pIC50 on Human P2Y12 receptor was 7.42.
For `CCCc1cc2c(N3CCn4c(nnc4C(F)(F)F)C3)nc(N3CC(O)C3)nc2s1` [Example 1-85, 1-[6-Propyl-4-(3-trifluoromethyl-5,6-dihydro-8H-[1,2,4]triazolo[4,3-a]pyrazin-7-yl)-thieno[2,3-d]pyrimidin-2-yl]-azetidin-3-ol], the pKi in experiment [1] was 7.85. Also, the pIC50 at Human P2Y12 receptor was 7.02.
As for `CCCc1cc2c(N3CCn4c(nnc4C(F)(F)F)C3)nc(C3=N[C@H](C(=O)OC)CS3)nc2s1` [Example 4-47, (R)-2-[6-Propyl-4-(3-trifluoromethyl-5,6-dihydro-8H-[1,2,4]triazolo[4,3-a]pyrazin-7-yl)thieno[2,3-d]pyrimidin-2-yl]-4,5-dihydro-thiazole-4-carboxylic acid methyl ester], in experiment [1], the pKi was 7.89. Besides, on Human P2Y12 receptor, the pIC50 is 7.62.
In turn, `CCCc1cc2c(N3CCn4c(nnc4C(F)(F)F)C3)nc(N3CCOCC3)nc2s1` [Example 1-15, 7-(2-Morpholin-4-yl-6-propyl-thieno[2,3-d]pyrimidin-4-yl)-3-trifluoromethyl-5,6,7,8-tetrahydro-[1,2,4]triazolo[4,3-a]pyrazine] showed a pKi in experiment [1] of 7.02. Also, the pIC50 at Human P2Y12 receptor was 7.21.
On to `CCCc1cc2c(N3CCn4c(nnc4C(F)(F)F)C3)nc(N3CCCC3CO)nc2s1` (stereo not drawn) [Example 1-30, {1-[6-Propyl-4-(3-trifluoromethyl-5,6-dihydro-8H-[1,2,4]triazolo[4,3-a]pyrazin-7-yl)-thieno[2,3-d]pyrimidin-2-yl]-pyrrolidin-2-yl}-methanol], for which the pKi in experiment [1] is 7.05. The negative-log IC50 (pIC50) at Human P2Y12 receptor is 7.18.
`CCCc1cc2c(N3CCn4c(nnc4C(F)(F)F)C3)nc(-c3nc(CC(OC)OC)no3)nc2s1` [Example 4-31, 7-{2-[3-(2,2-Dimethoxy-ethyl)-[1,2,4]oxadiazol-5-yl]-6-propyl-thieno[2,3-d]pyrimidin-4-yl}-3-trifluoromethyl-5,6,7,8-tetrahydro-[1,2,4]triazolo[4,3-a]pyrazine]: the pKi in experiment [1] was below 5.40. Moreover, on Human P2Y12 receptor, the pIC50 was 6.38.
For the compound `CCCc1cc2c(N3CCn4c(nnc4C(F)(F)F)C3)nc(OCCNS(C)(=O)=O)nc2s1` [Example 3-64, N-{2-[6-Propyl-4-(3-trifluoromethyl-5,6-dihydro-8H-[1,2,4]triazolo[4,3-a]pyrazin-7-yl)-thieno[2,3-d]pyrimidin-2-yloxy]-ethyl}-methanesulfonamide], in experiment [1], the pKi was 6.82. Further, the negative logarithm of the IC50 (pIC50) on Human P2Y12 receptor is 6.96.
In the same order, the values of `CCCc1cc2c(N3CCn4c(nnc4C(F)(F)F)C3)nc(N3CCC[C@H]3C(=O)OC)nc2s1` [Example 1-49, (S)-1-[6-Propyl-4-(3-trifluoromethyl-5,6-dihydro-8H-[1,2,4]triazolo[4,3-a]pyrazin-7-yl)-thieno[2,3-d]pyrimidin-2-yl]-pyrrolidine-2-carboxylic acid methyl ester] are 6.64 and 7.01.
